Measurements: ChEMBL document CHEMBL3098024, “Synthesis, molecular modeling and biological evaluation of N-benzylidene-2-((5-(pyridin-4-yl)-1,3,4-oxadiazol-2-yl)thio)acetohydrazide derivatives as potential anticancer agents” (Bioorg Med Chem, 2014)

Tests used:
[1] = tested on: HepG2; assay: Cytotoxicity against human HepG2 cells after 48 hrs by MTT assay; format: functional, cell-based; settings: HepG2, 48 h
[2] = Inhibition of telomerase in human SW1116 cells after 24 hrs by TRAP-PCR-ELISA assay; format: cell-based; settings: sw 1116
[3] = Cytotoxicity against human BGC823 cells after 48 hrs by MTT assay; format: functional, cell-based; settings: BGC-823, 48 h
[4] = tested on: MCF7; assay: Cytotoxicity against human MCF7 cells after 48 hrs by MTT assay; format: functional, cell-based; settings: MCF7, 48 h
[5] = Cytotoxicity against human SW1116 cells after 48 hrs by MTT assay; format: functional, cell-based; settings: SW 1116, 48 h
[6] = tested on: NIH3T3; assay: Cytotoxicity against mouse NIH/3T3 cells after 24 hrs by MTT assay; format: ADME, cell-based; settings: NIH3T3, 24 h

SMILES | IC50 [1] [µM] | IC50 [2] [µM] | pIC50 [2] | IC50 [3] [µM] | IC50 [4] [µM] | IC50 [5] [µM] | IC50 [6] [µM]
O=C(CSc1nnc(-c2ccncc2)o1)N/N=C/c1ccco1 | 12.5 | 9.63 | 5.02 | 25.8 | 16.6 | 18.8 | 175
NNC(=O)CSc1nnc(-c2ccncc2)o1 | 3.26 |  |  | 3.26 | 3.26 | 3.26 | 
O=C(CSc1nnc(-c2ccncc2)o1)N/N=C/c1cccs1 | 14.9 | 13.5 | 4.87 | 26.7 | 23.5 | 24.9 | 189
O=C(CSc1nnc(-c2ccncc2)o1)N/N=C/C=C/c1ccccc1 | 7.42 | 6.57 | 5.18 | 10.6 | 10.8 | 14.9 | 160
O=C(CSc1nnc(-c2ccncc2)o1)N/N=C/c1cccc(F)c1 | 19.4 | 15.7 | 4.8 | 27.5 | 24.9 | 26.7 | 205
O=C(CSc1nnc(-c2ccncc2)o1)N/N=C/c1cccc(C(F)(F)F)c1 | 6.52 | 5.18 | 5.29 | 13 | 14.6 | 14.9 | 169
COc1cccc(/C=N/NC(=O)CSc2nnc(-c3ccncc3)o2)c1 | 9.17 | 7.54 | 5.12 | 15.8 | 13.8 | 16.5 | 179
O=C(CSc1nnc(-c2ccncc2)o1)N/N=C/c1ccccc1F | 16 | 14.6 | 4.84 | 24 | 21.8 | 21.5 | 142
O=C(CSc1nnc(-c2ccncc2)o1)N/N=C/c1ccccc1[N+](=O)[O-] | 24.7 | 18.2 | 4.74 | 41.6 | 35.6 | 30.7 | 214
O=C(CSc1nnc(-c2ccncc2)o1)N/N=C/c1ccccc1O | 3.51 | 3.97 | 5.4 | 6.16 | 4.75 | 7.38 | 155
O=C(CSc1nnc(-c2ccncc2)o1)N/N=C/c1cc(Cl)ccc1O | 3.97 | 3.13 | 5.5 | 5.47 | 5.83 | 5.24 | 166
O=C(CSc1nnc(-c2ccncc2)o1)N/N=C/c1cc(Br)ccc1O | 6.49 | 4.28 | 5.37 | 9.59 | 7.77 | 8.15 | 156
O=C(CSc1nnc(-c2ccncc2)o1)N/N=C/c1cc(Cl)cc(Cl)c1O | 3.26 | 4.8 | 5.32 | 6.34 | 5.92 | 5.03 | 171
O=C(CSc1nnc(-c2ccncc2)o1)N/N=C/c1cc(Br)cc(Br)c1O | 6.54 | 7.12 | 5.15 | 9.61 | 9.01 | 8.57 | 190
O=C(CSc1nnc(-c2ccncc2)o1)N/N=C/c1ccc(O)c(O)c1 | 0.76 | 1.18 | 5.93 | 1.26 | 0.91 | 1.54 | 154
COc1cc(/C=N/NC(=O)CSc2nnc(-c3ccncc3)o2)ccc1O | 2.92 | 2.89 | 5.54 | 4.32 | 3.78 | 3.59 | 148
O=C(CSc1nnc(-c2ccncc2)o1)N/N=C/c1ccc(Cl)cc1Cl | 18.6 | 17.8 | 4.75 | 35.6 | 27.9 | 28.9 | 221
Cc1ccc(/C=N/NC(=O)CSc2nnc(-c3ccncc3)o2)cc1 | 10 | 8.51 | 5.07 | 21.8 | 14.7 | 16.8 | 185
O=C(CSc1nnc(-c2ccncc2)o1)N/N=C/c1ccccc1 | 17.3 | 9.72 | 5.01 | 22.1 | 14.6 | 16.7 | 167
O=C(CSc1nnc(-c2ccncc2)o1)N/N=C/c1ccc(F)cc1 | 12.3 | 10.2 | 4.99 | 17.8 | 13.5 | 15.7 | 170
O=C(CSc1nnc(-c2ccncc2)o1)N/N=C/c1ccc(Cl)cc1 | 15.7 | 11.9 | 4.93 | 20.5 | 15.3 | 17 | 181
O=C(CSc1nnc(-c2ccncc2)o1)N/N=C/c1ccc(Br)cc1 | 18.6 | 12.4 | 4.91 | 24.5 | 19.1 | 21.3 | 169
O=C(CSc1nnc(-c2ccncc2)o1)N/N=C/c1ccc([N+](=O)[O-])cc1 | 17.9 | 16.7 | 4.78 | 31.5 | 31.8 | 25.8 | 195
O=C(CSc1nnc(-c2ccncc2)o1)N/N=C/c1ccc(O)cc1 | 5.51 | 5.36 | 5.27 | 7.94 | 11.7 | 12.2 | 158
COc1ccc(/C=N/NC(=O)CSc2nnc(-c3ccncc3)o2)cc1 | 15.8 | 9.04 | 5.04 | 19.8 | 17.6 | 20.3 | 132
O=c1[nH]cc(F)c(=O)[nH]1 [FLUOROURACIL] | 7.43 |  |  | 7.48 | 9.79 | 5.26 | 
CC[n+]1c(-c2ccccc2)c2cc(N)ccc2c2ccc(N)cc21 [HOMIDIUM BROMIDE] |  | 2.71 |  |  |  |  | 135
